Drawing on patent US7511041B2, “Fused azole-pyrimidine derivatives” (Bayer Pharmaceuticals Corporation, priority 2002, dated 2009), this text covers IC50 and melting point for 40 molecules.

Series [1] concerns the target T1, Recombinant human PI3Kγ (full length human PI3K p110γ) (Homo sapiens, UniProt P48736).
T1 construct: full length human PI3K p110γ fused with a His6-tag at the C-terminus; His6 (C); purchased ALEXIS BIOCHEMICALS #201-055-C010; host or cells: S. frugiperda 9 insect cells
Nature of the series: Kinase assay of PI3Kγ (solid-phase lipid kinase assay). As to conditions: in vitro PI3K-γ inhibitory activity, class symbols; read-out: in vitro PI3K-gamma. Type of series: biochemical.

T1 sequence (P48736 whole entry, the tested form may be a part): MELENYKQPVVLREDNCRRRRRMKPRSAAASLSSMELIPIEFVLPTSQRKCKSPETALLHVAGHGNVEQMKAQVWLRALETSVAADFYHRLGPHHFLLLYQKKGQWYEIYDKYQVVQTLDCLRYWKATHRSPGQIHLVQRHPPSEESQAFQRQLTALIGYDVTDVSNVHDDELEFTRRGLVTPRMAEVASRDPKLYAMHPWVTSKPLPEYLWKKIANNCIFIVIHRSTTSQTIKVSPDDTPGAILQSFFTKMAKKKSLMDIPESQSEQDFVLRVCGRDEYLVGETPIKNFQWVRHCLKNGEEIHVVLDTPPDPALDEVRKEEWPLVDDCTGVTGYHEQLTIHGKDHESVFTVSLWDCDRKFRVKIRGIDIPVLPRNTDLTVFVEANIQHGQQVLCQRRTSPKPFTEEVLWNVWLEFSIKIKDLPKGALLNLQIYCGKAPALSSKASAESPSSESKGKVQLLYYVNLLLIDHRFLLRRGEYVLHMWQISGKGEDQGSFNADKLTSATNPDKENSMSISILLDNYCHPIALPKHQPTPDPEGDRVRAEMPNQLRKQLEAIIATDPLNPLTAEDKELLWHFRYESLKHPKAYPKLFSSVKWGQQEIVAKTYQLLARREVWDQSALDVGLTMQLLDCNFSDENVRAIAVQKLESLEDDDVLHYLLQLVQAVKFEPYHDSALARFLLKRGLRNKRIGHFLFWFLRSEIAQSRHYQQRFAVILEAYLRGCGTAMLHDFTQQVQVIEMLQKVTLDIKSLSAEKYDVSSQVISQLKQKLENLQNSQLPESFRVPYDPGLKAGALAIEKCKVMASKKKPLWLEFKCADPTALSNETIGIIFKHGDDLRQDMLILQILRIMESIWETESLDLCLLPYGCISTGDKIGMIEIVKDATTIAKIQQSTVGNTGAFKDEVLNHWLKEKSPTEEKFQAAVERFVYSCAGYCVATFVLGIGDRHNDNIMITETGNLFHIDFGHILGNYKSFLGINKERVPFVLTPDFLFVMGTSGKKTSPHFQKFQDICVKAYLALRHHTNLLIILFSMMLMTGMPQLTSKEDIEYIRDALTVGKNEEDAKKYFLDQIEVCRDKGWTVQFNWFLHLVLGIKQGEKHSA

The term melting point denotes the temperature of the solid-liquid transition. In the case of `Cc1nc(C)c(C(=O)NC2=Nc3cc(N4CCOCC4)ccc3C3=NCCN23)s1.Cl` [Example 2-17], the melting point is 255 °C (dec.). Besides, the IC50 in series [1] is less than 100 nM.
The molecule `CCn1nc(C)cc1C(=O)NC1=Nc2cc(N3CCOCC3)ccc2C2=NCCN12` [Example 2-18] registered a melting point of 232 °C. The IC50 in series [1] lay in the range of 100 to 500 nM.
The like results for `COc1ccc2c(c1)N=C(NC(=O)c1cccnc1)N1CCN=C21` [Example 2-20] were, in that order, 281 °C (dec.) and 100 to 500 nM.
In the same order, the values of `COc1ccc2c(c1)N=C(NC(=O)c1ccc(NC(C)=O)nc1)N1CCN=C21.Cl` [Example 2-22] are 198 to 205 °C (dec.) and 100 to 500 nM.
In the same order, the values of `COc1ccc2c(c1)N=C(NC(=O)c1ccc(N)nc1)N1CCN=C21` [Example 2-23] are 279 to 282 °C and less than 100 nM.
The molecule `COc1ccc2c(c1)N=C(NC(=O)c1ccc3[nH]cnc3c1)N1CCN=C21` [Example 2-25] yielded a melting point of 186 °C. For the same molecule, the IC50 in series [1] is less than 100 nM.
Molecule `Cc1ccc2c(c1)N=C(NC(=O)c1cccnc1)N1CCN=C21` [Example 2-27] showed a melting point of 207 °C. Besides, the IC50 in series [1] was less than 100 nM.
In turn, `Cc1ccc2c(c1)N=C(NC(=O)c1ccc3[nH]cnc3c1)N1CCN=C21` [Example 2-29] gave a melting point of 190 °C. Further, in series [1], the IC50 is less than 100 nM.
In the same order, the values of `Cc1ccc2c(c1)N=C(NC(=O)c1ccc3[nH]cnc3c1)N1CCN=C21.Cl` [Example 2-30] are 295 °C and 100 to 500 nM.
The like results for `Cc1ccc2c(c1)N=C(NC(=O)c1cccs1)N1CCN=C21` [Example 2-31] were, in that order, 182 °C and 100 to 500 nM.
In the same order, the values of `O=C(NC1=Nc2cc(C(F)(F)F)ccc2C2=NCCN12)c1cccnc1` [Example 2-33] are 229 °C and 100 to 500 nM.
For the molecule `Cl.O=C(NC1=Nc2cc(C(F)(F)F)ccc2C2=NCCN12)c1cccnc1` [Example 2-34], the melting point was 275 °C. Further, the IC50 in series [1] was less than 100 nM.
In the same order, the values of `Cl.O=C(NC1=Nc2cc(C(F)(F)F)ccc2C2=NCCN12)c1cncc(O)c1` [Example 2-35] are 237 °C (dec.) and less than 100 nM.
The like results for `O=C(NC1=Nc2cc(C(F)(F)F)ccc2C2=NCCN12)c1ccc2[nH]cnc2c1` [Example 2-36] were, in that order, more than 300 °C and 100 to 500 nM.
The like results for `Cl.O=C(NC1=Nc2cc(C(F)(F)F)ccc2C2=NCCN12)c1ccc2[nH]cnc2c1` [Example 2-37] were, in that order, 288 °C and less than 100 nM.
The molecule `Cl.O=C(NC1=Nc2cc(Cl)ccc2C2=NCCN12)c1cccnc1` [Example 2-38] showed a melting point of 308 °C. The IC50 in series [1] was 100 to 500 nM.
In the same order, the values of `O=C(NC1=Nc2cc(Cl)ccc2C2=NCCN12)c1ccc2[nH]cnc2c1` [Example 2-39] are 288 °C and less than 100 nM.
The like results for `Cl.O=C(NC1=Nc2cc(Cl)ccc2C2=NCCN12)c1cccs1` [Example 2-41] were, in that order, 328 °C and 100 to 500 nM.
With `Cl.O=C(NC1=Nc2cc(Br)ccc2C2=NCCN12)c1cccnc1` [Example 2-42], the melting point amounted to 243 °C. Moreover, the IC50 in series [1] was less than 100 nM.
In the same order, the values of `Cc1ncccc1C(=O)NC1=Nc2cc(Br)ccc2C2=NCCN12.Cl` [Example 2-43] are 252 °C (dec.) and 100 to 500 nM.
`O=C(NC1=Nc2cc(Br)ccc2C2=NCCN12)c1ccc2[nH]cnc2c1` [Example 2-44] displayed a melting point of 262 °C. Also, the IC50 in series [1] was in the range of 100 to 500 nM.
The like results for `Cl.O=C(NC1=Nc2cc(Br)ccc2C2=NCCN12)c1ccc2[nH]cnc2c1` [Example 2-45] were, in that order, 278 °C and less than 100 nM.
`COc1ccc2c(c1OC)N=C(NC(=O)c1ccc(NC(C)=O)nc1)N1CCN=C21` [Example 2-48] showed a melting point of 306 to 307 °C. For the same molecule, the IC50 in series [1] is less than 100 nM.
In the same order, the values of `COc1ccc2c(c1OC)N=C(NC(=O)c1ccc3[nH]cnc3c1)N1CCN=C21` [Example 2-49] are 289 °C (dec.) and less than 100 nM.
Consider `COc1ccc2c(c1OC)N=C(NC(=O)c1cnc3[nH]cnc3c1)N1CCN=C21` [Example 2-51], for which the melting point was 233 °C (dec.). Besides, in series [1], the IC50 was less than 100 nM.
In the same order, the values of `COc1cc2c(cc1OC)C1=NCCN1C(NC(=O)c1cncc(O)c1)=N2` [Example 2-54] are 287 °C (dec.) and less than 100 nM.
In the same order, the values of `COc1cc2c(cc1OC)C1=NCCN1C(NC(=O)c1ccc(N)nc1)=N2.Cl` [Example 2-56] are 256 °C and 100 to 500 nM.
In the same order, the values of `COc1cc2c(cc1OC)C1=NCCN1C(NC(=O)c1ccc(NC(C)=O)nc1)=N2` [Example 2-57] are 224 °C and 100 to 500 nM.
`COc1cc2c(cc1OC)C1=NCCN1C(NC(=O)c1cncc(C)c1)=N2.Cl` [Example 2-59]: the melting point is 257 °C (dec.). Moreover, the IC50 in series [1] was in the range of 100 to 500 nM.
The like results for `COc1cc2c(cc1OC)C1=NCCN1C(NC(=O)c1ccc3[nH]cnc3c1)=N2` [Example 2-60] were, in that order, 246 °C and less than 100 nM.
The like results for `COc1cc2c(cc1OC)C1=NCCN1C(NC(=O)c1cccs1)=N2` [Example 2-62] were, in that order, 248 °C and 100 to 500 nM.
As for `COc1cc2c(cc1OC)C1=NCCN1C(NC(=O)c1cn[nH]c1)=N2.Cl` [Example 2-63], the melting point was 270 °C (dec.). Besides, in series [1], the IC50 lay within 100 to 500 nM.
As to `COc1cc2c(cc1OC)C1=NCCN1C(NC(=O)c1cc(C)nn1C)=N2` [Example 2-64], the melting point fell in the range of 236 to 237 °C. Also, in series [1], the IC50 was in the range of 100 to 500 nM.
The like results for `COc1ccc2c(c1Br)N=C(NC(=O)c1cccnc1)N1CCN=C21` [Example 2-65] were, in that order, 264 °C and less than 100 nM.
The like results for `COc1cc2c(cc1Br)C1=NCCN1C(NC(=O)c1cccnc1)=N2.Cl` [Example 2-67] were, in that order, 289 °C (dec.) and 100 to 500 nM.
Turning to `COc1cc(OC)c2c(c1)C1=NCCN1C(NC(=O)c1cccnc1)=N2` [Example 2-68], the melting point is 228 °C (dec.). In series [1], the IC50 is less than 100 nM.
The like results for `COc1cc(OC)c2c(c1)C1=NCCN1C(NC(=O)c1cccnc1)=N2.Cl` [Example 2-69] were, in that order, 275 °C (dec.) and 100 to 500 nM.
The like results for `COc1cc(OC)c2c(c1)C1=NCCN1C(NC(=O)c1ccc(NC(C)=O)nc1)=N2` [Example 2-70] were, in that order, 286 °C (dec.) and 100 to 500 nM.
In the same order, the values of `COc1cc(OC)c2c(c1)C1=NCCN1C(NC(=O)c1ccc3[nH]cnc3c1)=N2` [Example 2-72] are 210 °C (dec.) and less than 100 nM.
On to `Cc1cc(Br)c2c(c1)C1=NCCN1C(NC(=O)c1cccnc1)=N2.Cl` [Example 2-74], for which the melting point stood at 220 °C. For the same molecule, in series [1], the IC50 was less than 100 nM.
